According to patent publication US9403796B2, “Amidomethyl-substituted oxindole derivatives and the use thereof for the treatment of vasopressin-dependent illnesses” (AbbVie Deutschland GmbH & Co. KG, priority 2007, dated 2016):

How the values were obtained:
[1] = Determination of the microsomal half-life / microsomal clearance; format: in vitro ADME; conditions: pH 7.4; human liver microsomes, 0.5 μM test substance
Protocol: The metabolic stability of the compounds of the invention was determined in the following assay.
The test substances were incubated in a concentration of 0.5 μM as follows:
0.5 μM test substance are preincubated together with liver microsomes from different species (from rat, human or other species) (0.25 mg of microsomal protein/ml) in 0.05 M potassium phosphate buffer of pH 7.4 in microtiter plates at 37° C. for 5 min. The reaction is started by adding NADPH (1 mg/mL). After 0, 5, 10, 15, 20 and 30 min, 50 μl aliquots are removed, and the reaction is immediately stopped and cooled with the same volume of acetonitrile. The samples are frozen until analyzed. The remaining concentration of undegraded test substance is determined by MSMS. The half-life (T½) is determined from the gradient of the signal of test substance/unit time plot, it being possible to calculate the half-life of the test substance, assuming first order kinetics, from the decrease in the concentration of the compound with time. The microsomal clearance (mCl) is calculated from mCl=In2/T½/(content of microsomal protein in mg/ml)×1000 [ml/min/mg] (modified from references: Di, The Society for Biomolecular Screening, 2003, 453-462; Obach, DMD, 1999 vol. 27. N 11, 1350-1359).

[2] = molecular target: T1, human vasopressin V1b receptor (Homo sapiens, UniProt P47901); test: Vasopressin V1b receptor binding assay; conditions: CHO-K1 membranes, 3H-AVP displacement
T1 construct: expressed in transfected cells; host or cells: CHO-K1 (cell line hV1b_3H2_CHO), membrane preparation
T1 sequence (P47901 1-424): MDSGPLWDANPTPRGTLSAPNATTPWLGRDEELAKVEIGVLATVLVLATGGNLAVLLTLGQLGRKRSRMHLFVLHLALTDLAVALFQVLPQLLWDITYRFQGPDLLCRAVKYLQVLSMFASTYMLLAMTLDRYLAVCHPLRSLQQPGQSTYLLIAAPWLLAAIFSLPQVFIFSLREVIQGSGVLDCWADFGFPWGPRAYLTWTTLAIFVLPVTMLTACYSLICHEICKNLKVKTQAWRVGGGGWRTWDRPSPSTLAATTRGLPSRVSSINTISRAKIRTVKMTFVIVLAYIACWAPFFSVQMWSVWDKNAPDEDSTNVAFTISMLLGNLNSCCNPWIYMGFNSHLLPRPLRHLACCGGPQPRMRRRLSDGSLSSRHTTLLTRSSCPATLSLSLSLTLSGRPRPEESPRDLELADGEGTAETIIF
Protocol: The substance concentration was further diluted 1:5 in the assay mixture (2% DMSO in the mixture).
The nonspecific binding was determined with […] (Bachem #H1780). All determinations were carried out as triplicate determinations.

[3] = molecular target: human vasopressin V1a receptor (Homo sapiens, UniProt P37288); test: Vasopressin V1a receptor binding assay; conditions: selectivity quotient, human V1a vs human V1b
Sequence of human vasopressin V1a receptor (P37288 whole entry): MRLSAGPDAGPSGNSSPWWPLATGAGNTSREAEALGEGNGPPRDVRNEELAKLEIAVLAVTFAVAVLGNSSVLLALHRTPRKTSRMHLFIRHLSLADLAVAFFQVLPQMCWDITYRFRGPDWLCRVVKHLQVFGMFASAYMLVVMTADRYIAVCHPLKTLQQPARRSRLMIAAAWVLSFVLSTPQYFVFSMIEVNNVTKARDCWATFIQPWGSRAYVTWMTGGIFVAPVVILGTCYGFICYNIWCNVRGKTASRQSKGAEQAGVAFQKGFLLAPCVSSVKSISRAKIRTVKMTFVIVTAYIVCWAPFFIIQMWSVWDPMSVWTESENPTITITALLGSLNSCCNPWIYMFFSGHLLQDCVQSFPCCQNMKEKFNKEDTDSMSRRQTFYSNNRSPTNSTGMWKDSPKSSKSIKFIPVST

| SMILES | microsomal CLint at 0.5 μM [1] | Ki [2] | Ki(h-V1a)/Ki(h-V1b) [3] |
| --- | --- | --- | --- |
| CCOc1ncccc1C1(CC(=O)N2CCC(N3CCN(C)CC3)CC2)C(=O)N(S(=O)(=O)c2ccccc2)c2ccc(C#N)cc21.O=C(O)C(F)(F)F (racemic) [Example 1, (±)-1-Phenylsulfonyl-3-(2-ethoxypyridin-3-yl)-3-{2-[4-(4-methylpiperazin-1-yl)piperidin-1-yl]-2-oxoethyl}-2-oxo-2,3-dihydro-1H-indole-5-carbonitrile, trifluoroacetic acid salt] | < 100 µL/min/mg | 3 to 30 nM | ++ (15-30) |
| CCOc1ncccc1C1(CC(=O)N2CCC(N3CCN(CC)CC3)CC2)C(=O)N(S(=O)(=O)c2ccc(OC)cc2OC)c2ccc(C#N)cc21.O=C(O)C(F)(F)F (racemic) [Example 2, (±)-1-(2,4-Dimethoxyphenylsulfonyl)-3-(2-ethoxypyridin-3-yl)-3-{2-[4-(4-ethylpiperazin-1-yl)piperidin-1-yl]-2-oxoethyl}-2-oxo-2,3-dihydro-1H-indole-5-carbonitrile trifluoroacetic acid salt] | < 100 µL/min/mg | < 3 nM | +++ (>30) |
| CCOc1ncccc1C1(CC(=O)N2CCC(N3CCN(CC)CC3)CC2)C(=O)N(S(=O)(=O)c2ccccc2)c2ccc(C#N)cc21.O=C(O)C(F)(F)F (racemic) [Example 3, (±)-1-Phenylsulfonyl-3-(2-ethoxypyridin-3-yl)-3-{2-[4-(4-ethylpiperazin-1-yl)piperidin-1-yl]-2-oxoethyl}-2-oxo-2,3-dihydro-1H-indole-5-carbonitrile, trifluoroacetic acid salt] | < 100 µL/min/mg | 3 to 30 nM | +++ (>30) |
| CCOc1ncccc1C1(CC(=O)N2CCC(N3CCN(CC)CC3)CC2)C(=O)N(S(=O)(=O)c2ccccc2OC)c2ccc(C#N)cc21.O=C(O)C(F)(F)F (racemic) [Example 4, (±)-3-(2-Ethoxypyridin-3-yl)-3-{2-[4-(4-ethylpiperazin-1-yl)piperidin-1-yl]-2-oxoethyl}-1-(2-methoxyphenylsulfonyl)-2-oxo-2,3-dihydro-1H-indole-5-carbonitrile, trifluoroacetic acid salt] | 100 to 200 µL/min/mg | 3 to 30 nM | +++ (>30) |
| CCOc1ncccc1C1(CC(=O)N2CCC(N3CCN(C)CC3)CC2)C(=O)N(S(=O)(=O)c2ccccc2OC)c2ccc(C#N)cc21.O=C(O)C(F)(F)F (racemic) [Example 5, (±)-3-(2-Ethoxypyridin-3-yl)-1-(2-methoxyphenylsulfonyl)-3-{2-[4-(4-methylpiperazin-1-yl)-piperidin-1-yl]-2-oxoethyl}-2-oxo-2,3-dihydro-1H-indole-5-carbonitrile, trifluoroacetic acid] | 100 to 200 µL/min/mg | 3 to 30 nM | ++ (15-30) |
| CCOc1ncccc1C1(CC(=O)N2CCC(N3CCN(C)CC3)CC2)C(=O)N(S(=O)(=O)c2ccc(OC)cc2OC)c2ccc(C#N)cc21.O=C(O)C(F)(F)F (racemic) [Example 6, (±)-1-(2,4-Dimethoxyphenylsulfonyl)-3-(2-ethoxypyridin-3-yl)-3-{2-[4-(4-methylpiperazin-1-yl)piperidin-1-yl]-2-oxoethyl}-2-oxo-2,3-dihydro-1H-indole-5-carbonitrile, trifluoroacetic acid salt] | < 100 µL/min/mg | < 3 nM | +++ (>30) |
| CCOc1ncccc1C1(CC(=O)N2CCN(C3CCN(C)CC3)CC2)C(=O)N(S(=O)(=O)c2ccccc2)c2ccc(C#N)cc21.O=C(O)C(F)(F)F (racemic) [Example 7, (±)-1-Phenylsulfonyl-3-(2-ethoxypyridin-3-yl)-3-{2-[4-(1-methylpiperidin-4-yl)piperazin-1-yl]-2-oxoethyl}-2-oxo-2,3-dihydro-1H-indole-5-carbonitrile, trifluoroacetic acid salt] | < 100 µL/min/mg | 3 to 30 nM | +++ (>30) |
| CCOc1ncccc1C1(CC(=O)N2CCN(C3CCN(C)CC3)CC2)C(=O)N(S(=O)(=O)c2ccccc2OC)c2ccc(C#N)cc21.O=C(O)C(F)(F)F (racemic) [Example 8, (±)-3-(2-Ethoxypyridin-3-yl)-1-(2-methoxyphenylsulfonyl)-3-{2-[4-(1-methylpiperidin-4-yl)-piperazin-1-yl]-2-oxoethyl}-2-oxo-2,3-dihydro-1H-indole-5-carbonitrile, trifluoroacetic acid salt] | < 100 µL/min/mg | 3 to 30 nM | +++ (>30) |
| CCOc1ncccc1C1(CC(=O)N2CCN(C3CCN(C)CC3)CC2)C(=O)N(S(=O)(=O)c2ccc(OC)cc2OC)c2ccc(C#N)cc21.O=C(O)C(F)(F)F (racemic) [Example 9, (±)-1-(2,4-Dimethoxyphenylsulfonyl)-3-(2-ethoxypyridin-3-yl)-3-{2-[4-(1-methylpiperidin-4-yl)piperazin-1-yl]-2-oxoethyl}-2-oxo-2,3-dihydro-1H-indole-5-carbonitrile, trifluoroacetic acid salt] | < 100 µL/min/mg | < 3 nM | +++ (>30) |
| CCOc1ncccc1C1(CC(=O)N2CCN(C3CCN(CC)CC3)CC2)C(=O)N(S(=O)(=O)c2ccc(OC)cc2OC)c2ccc(C#N)cc21 (single isomer, unassigned; (-)) [Example 10B, (−)1-(2,4-Dimethoxyphenylsulfonyl)-3-(2-ethoxypyridin-3-yl)-3-{2-[4-(1-ethylpiperidin-4-yl)-piperazin-1-yl]-2-oxoethyl}-2-oxo-2,3-dihydro-1H-indole-5-carbonitrile] | < 100 µL/min/mg | < 3 nM | +++ (>30) |
